Earlier results, collected in patent US20240207270A1, “COMPOUNDS AND COMPOSITIONS FOR MODULATING LIPID METABOLISM” (WaveBreak Inc., priority 2021, published 2024).

Molecular target: ROCK
Details: ATP-competitive inhibitor of ROCK

For `Cc1cncc2cccc(S(=O)(=O)N3CCCNC[C@@H]3C)c12` [(S)-H-1152], which Ki is on record?
Its Ki is 1.6 nM.
